Here are results for 1 compound from ChEMBL document CHEMBL5608174, “Synthesis and biological evaluation of 4-phenyl-5-quinolinyl substituted isoxazole analogues as potent cytotoxic and tubulin polymerization inhibitors against ESCC” (Eur J Med Chem, 2024).

One assay addresses Tubulin (Homo sapiens) (UniProt P68371+Q9H4B7+P0DPH7+P68366+Q13509+Q71U36+P04350+Q3ZCM7+P07437+P68363+Q9BQE3+Q6PEY2+Q13885+Q9BVA1+Q9BUF5). Briefly: Inhibition of tubulin polymerization in human KYSE-70 cells assessed as reduction in filamentous microtubule structure formation at 5 to 20 nmol/L incubated for 24 hrs by DAPI staining based fluorescence microscopic analysis. Particulars: dose 5-20 nmol/L. The format is cell-based.

Assay [1] deals with KYSE-30. Briefly: Induction of morphological changes in human KYSE-30 cells assessed as increase in proportion of dead cells at 5 to 20 nmol/L incubated for 48 hrs by Calcein AM/PI staining based inverted fluorescence microscopic analysis. It is filed as functional, cell-based. The settings on record: dose 5-20 nmol/L.
The subject of assay [2] is KYSE-30. Briefly: Induction of apoptosis in human KYSE-30 cells assessed as late apoptotic cells at 10 nmol/L incubated for 48 hrs by Annexin V-FITC/PI staining based flow cytometry analysis (reference value: 5.27 %). The format is functional.
For assay [3], the system named is KYSE-30. Briefly: Inhibition of colony formation in human KYSE-30 cells at 4 nmol/L incubated for 7 days by crystal violet staining based analysis. The format is functional, cell-based. Particulars: time 7.0 day.
The next assay deals with KYSE-70 cell line. Kind of assay: Antiproliferative activity against human KYSE-70 cells assessed as inhibition of cell growth incubated for 48 hrs by MTT assay. The settings on record: KYSE-70, 48 h. The format is functional, cell-based.

Molecules are shown by their SMILES. Active and inactive are the calls of the source. The calls are words filed in the database; no cut-off is given here.

What is called IC50 is the concentration at which inhibition is half-maximal. As for `COc1ccc(-c2cnoc2-c2cc(C)nc3ccccc23)cc1`, the inhibition result on Tubulin (Homo sapiens) and with KYSE-30 [3] was “Active” throughout. Besides, in the assay on KYSE-30 [1], the result was Active. Moreover, the Activity in the assay on KYSE-30 [2] was 11.91%. The half-inhibitory concentration (IC50) with KYSE-70 cell line is 7.79 nM.
